Here are results for 20 compounds from patent US20240239788A1, “SMALL MOLECULE INHIBITORS OF KRAS G12D MUTANT” (Merck Sharp & Dohme LLC, priority 2021, published 2024).

Each structure is given as a SMILES string. Counter-ions that a name gives are not always drawn. Like-named read-outs stand apart in the source and are kept apart here.

The test system of assay [1] is AsPC-1 cells containing homozygous KRAS-G12D activating mutation. In words: Cellular phospho-ERK assay with 10% FBS (Examples 107a-256). In kind it is cell-based. The protocol:
5% CO2 for 2 hours. […] Assay plates were read on a EnVision Multimode Plate Reader (PerkinElmer) and the ratio of p-Erk vs total Erk in each well was used as the final readout.

Assay [2] addresses KRAS protein containing G12D mutation (Homo sapiens (Human), UniProt P01116, G12D). The assay is described as follows: SOS-catalyzed nucleotide exchange assay (GNE), TR-FRET. Format: biochemical. The note with it: biotinylated KRAS G12D, SOS and GTP, 60-minute incubation. The protocol: Compounds are added to this complex and then after a 60-minute incubation time the mixture is treated with SOS and unlabeled GTP. Small molecule inhibitors stabilize the Bodipy-GDP complex whereas the untreated protein rapidly exchanges Bodipy-GDP for unlabeled GTP resulting in reduced TR-FRET signal.
This solution is referred to as biotinylated KRAS G12D stock solution.
In general terms: TR-FRET usually uses a lanthanide donor and a delayed reading to cut background.

The mark [3] stands for this setting: Homo sapiens, ASPC1, 2 h, read-out: IC50 (nM) pERK (cell with FBS 10%), AsPC-1 cells, 10% fetal bovine serum, 2 hours, ratio of p-Erk vs total Erk.
Where [4] appears, read: read-out: IC50 (nM) pERK (cell with FBS 10%), AsPC-1 cells, 10% fetal bovine serum, 2 hours, ratio of p-Erk vs total Erk.

Sequence of KRAS protein containing G12D mutation (P01116 other isoform, or with tags, fused parts or gaps G12D (already in the parent)): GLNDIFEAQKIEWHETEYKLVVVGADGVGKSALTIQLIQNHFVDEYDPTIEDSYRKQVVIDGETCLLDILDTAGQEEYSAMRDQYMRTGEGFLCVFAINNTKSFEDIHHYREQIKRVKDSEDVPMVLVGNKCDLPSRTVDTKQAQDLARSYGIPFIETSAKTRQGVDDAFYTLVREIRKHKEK

With `Cc1cc(N)nc(-c2c(F)cc3c(N4CC5CCC(C4)N5)nc(OC[C@@]45CCCN4C[C@H](F)C5)nc3c2F)c1C(F)(F)F` (mixture of isomers) [Ex. 193, 6-(4-((1R,5S)-3,8-diazabicyclo[3.2.1]-octan-3-yl)-6,8-difluoro-2-(((2R,7aS)-2-fluorotetrahydro-1H-pyrrolizin-7a(5H)-yl)methoxy)quinazo-lin-7-yl)-4-methyl-5-(trifluoromethyl)pyr-idin-2-amine], the IC50 in assay [1] (setting [3]) came to 187 nM; in assay [2], 10.3 nM.
`C#Cc1cccc2scc(-c3c(F)cc4c(N5CC6CC[C@@](C)(C5)N6)nc(OCC5(CN6CCOCC6)CC5)nc4c3F)c12` (single isomer, unassigned) [Ex. 147b]: the IC50 in assay [1] (setting [4]) stood at 10200 nM; in assay [2], 429 nM.
Turning to `Cc1cc2[nH]nc(C#N)c2c(-c2c(F)cc3c(N4C[C@H]5CC[C@@H](C4)N5)nc(OC[C@@]45CCCN4C[C@H](F)C5)nc3c2F)c1C(F)(F)F` (single isomer, unassigned) [Ex. 227a], the IC50 amounted to 1520 nM in assay [1] (setting [4]) and 190 nM in assay [2].
`C[C@]12CCC(CN(c3nc(OC[C@@]45CCCN4C[C@H](F)C5)nc4c(F)c(-c5cc(O)cc(Cl)c5OC(F)(F)F)c(F)cc34)C1)N2` [compound 244, 3-chloro-5-(6,8-difluoro-2-(((2RS,7aS)-2-fluorotetrahydro-1H-pyrrolizin-7a(5H)-yl)methoxy)-4-((1S,5R)-1-methyl-3,8-diazabicyclo[3.2.1]octan-3-yl)quina-zolin-7-yl)-4-(trifluoromethoxy)phenol]: the IC50 in assay [1] (setting [3]) was found to be 161 nM; in assay [2], 3.7 nM.
The corresponding values for `C[C@]12CCC(CN(c3nc(OC[C@]4(CN5CCC(CO)C5)CC4(F)F)nc4c(F)c(-c5cc(O)cc6cccc(Cl)c56)c(F)cc34)C1)N2` (mixture of isomers) [Ex. 218, 5-chloro-4-(2-(((1R)-2,2-difluoro-1-((3-(hydroxymethyl)pyrrolidin-1-)-methyl)cyclopropyl)methoxy)-6,8-difluoro-4-((1S,5R)-1-methyl-3,8-diazabicyclo[3.2.1]octan-3-yl)quinazolin-7-yl)naphthalen-2-ol] are 1550 nM and 6.54 nM.
In the case of `Cc1cc2[nH]nc(C#N)c2c(-c2c(F)cc3c(N4C[C@H]5CC[C@@H](C4)N5)nc(OC[C@@]45CCCN4C[C@H](F)C5)nc3c2F)c1C(F)F` [compound 254, 4-(4-((1R,5S)-3,8-diazabicyclo[3.2.1]octan-3-yl)-6,8-difluoro-2-(((2R,7aS)-2-fluorotetrahydro-1H-pyrrolizin-7a(5H)-yl)methoxy)quinazolin-7-yl)-5-(difluoromethyl)-6-methyl-1H-indazole-3-carbonitrile], the IC50 in assay [1] (setting [3]) stood at 80.3 nM; in assay [2], 0.77 nM.
On to `CN(C)CC1(COc2nc(N3C[C@H]4CC[C@@](C)(C3)N4)c3cc(F)c(-c4cc(O)cc5ccccc45)c(F)c3n2)CC1C(=O)O` (single isomer, unassigned) [Ex. 107a], for which the values for the IC50 in assay [1] (setting [4]) and in assay [2] were 30000 nM and 648 nM, respectively.
Take `COCCN(C)C[C@@]1(COc2nc(N3CC4CC[C@@](C)(C3)N4)c3cc(F)c(-c4c(C(F)(F)F)c(C)cc5[nH]ncc45)c(F)c3n2)CC1(F)F` [Ex. 223, (1S,5R)-3-(2-(((R)-2,2-difluoro-1-(((2-methoxyethyl)(methyl)amino)-methyl)cyclopropyl)methoxy)-6,8-difluoro-7-(6-methyl-5-(trifluorometh-yl)-1H-indazol-4-yl)quinazolin-4-yl)-1-methyl-3,8-diazabicyclo[3.2.1]-ocan-8-ium 2,2,2-trifluoroacetate]: the IC50 in assay [1] (setting [3]) worked out at 27300 nM; in assay [2], 425 nM.
With `C[C@]12CC[C@H](CN(c3nc(OCC4(CN5CCCC(O)(C(F)(F)F)C5)CC4)nc4c(F)c(-c5cc(O)cc6cccc(Cl)c56)c(F)cc34)C1)N2` (mixture of isomers) [Ex. 207, rac-1-((1-(((7-(8-chloro-3-hydroxynaphthalen-1-yl)-6,8-difluoro-4-((1S,5R)-1-methyl-3,8-diazabicyclo-[3.2.1]octan-3-yl)quinazolin-2-yl)oxy)methyl)cyclo-propyl)methyl)-3-trifluoromethyl)piperidin-3-ol], the IC50 in assay [1] (setting [4]) is 30000 nM; in assay [2], 767 nM.
For `C[C@]12CCC(CN(c3nc(OC[C@@]45CCCN4C[C@H](F)C5)nc4c(F)c(-c5cc(O)cc6cc(F)cc(Cl)c56)c(F)cc34)C1)N2` (single isomer, unassigned) [Ex. 180b], the IC50 in assay [1] (setting [4]) was 14200 nM; in assay [2], 744 nM.
As for `Cc1cc2[nH]nc(C)c2c(-c2c(F)cc3c(N4CC5CCC(C4)N5)nc(OC[C@@]45CCCN4C[C@H](F)C5)nc3c2F)c1OC(F)(F)F` (single isomer, unassigned) [Ex. 232a], the IC50 is 30000 nM in assay [1] (setting [4]) and 932 nM in assay [2].
Take `C[C@]12CCC(CN(c3nc(OC[C@@]45CCCN4C[C@H](F)C5)nc4c(F)c(-c5cc(O)cn6ncc(Cl)c56)c(F)cc34)C1)N2` (single isomer, unassigned) [Ex. 230a, TFA]: the IC50 in assay [1] (read-out: IC50 (nM) pERK (cell with FBS 10%), AsPC-1 cells, 10% fetal bovine serum, 2 hours, ratio of p-Erk vs total Erk, TFA) was found to be 1450 nM; in assay [2] it was 30.9 nM.
As to `C#Cc1c(F)ccc2cccc(-c3c(F)cc4c(N5CC6CCC(C5)N6)nc(OC[C@@]56CCCN5[C@H](CO)CC6)nc4c3F)c12` (single isomer, unassigned) [Ex. 142], the IC50 is 384 nM in assay [1] (setting [3]) and 1.57 nM in assay [2].
Take `C[C@]12CC[C@H](CN(c3nc(OC[C@@]45CCCN4C[C@H](F)C5)nc4c(F)c(-c5cc(O)cc(Cl)c5Cl)c(F)cc34)C1)N2` (single isomer, unassigned) [Ex. 129a, HCl]: the IC50 in assay [1] (setting [3]) was found to be 2810 nM; in assay [2], 17.7 nM.
Regarding `C[C@]12CC[C@H](CN(c3nc(OC[C@@]45CCCN4C[C@H](F)C5)nc4c(F)c(-c5cc(O)cc(Cl)c5Cl)c(F)cc34)C1)N2` (single isomer, unassigned) [Ex. 129b, HCl], the IC50 came to 3010 nM in assay [1] (read-out: IC50 (nM) pERK (cell with FBS 10%), AsPC-1 cells, 10% fetal bovine serum, 2 hours, ratio of p-Erk vs total Erk, HCl) and 14.1 nM in assay [2].
Take `Oc1cc(Cl)c(C(F)(F)F)cc1-c1c(F)cc2c(N3CC4CCC(C3)N4)nc(OC[C@@]34CCCN3C[C@H](F)C4)nc2c1F` (single isomer, unassigned) [Ex. 256]: the IC50 was determined as 5870 nM in assay [1] (setting [3]) and 246 nM in assay [2].
For the compound `C[C@@]12CC[C@H](CN(c3nc(OC[C@@]45CCCN4C[C@H](F)C5)nc4c(F)c(-c5cc(O)cc6ccc(F)c(Cl)c56)c(F)cc34)C1)N2` (single isomer, unassigned) [Ex. 176a], the IC50 in assay [1] (setting [3]) stood at 400 nM; in assay [2], 1.91 nM.
Consider `COCC1CCN(C[C@@]2(COc3nc(N4CC5CC[C@@](C)(C4)N5)c4cc(F)c(-c5cc(O)cc6cccc(Cl)c56)c(F)c4n3)CC2(F)F)C1` (single isomer, unassigned) [Ex. 214b], for which the IC50 in assay [1] (setting [4]) came to 9070 nM; in assay [2] it was 180 nM.
For the compound `C#Cc1cccc2cccc(-c3c(F)cc4c(N5CC6CC[C@@](C)(C5)N6)nc(OC[C@@]56CCCN5C[C@H](F)C6)nc4c3F)c12` (single isomer, unassigned) [Ex. 211b], the IC50 in assay [1] (setting [3]) worked out at 2010 nM; in assay [2] it was 7.41 nM.
Turning to `Cc1nc(N)c(F)c(-c2c(F)cc3c(N4CC5CCC(C4)N5)nc(OC[C@@]45CCCN4C[C@H](F)C5)nc3c2F)c1C(F)(F)F` (single isomer, unassigned) [Ex. 151b], the IC50 in assay [1] (setting [4]) came out at 278 nM; in assay [2], 21.6 nM.
